Laboratory results published in paper PMC7887271, “Fast acting allosteric phosphofructokinase inhibitors block trypanosome glycolysis and cure acute African trypanosomiasis in mice” (Nature Communications, 2021).
“And” between values parts separate entries of the source, which are not always exact repeats. Equal entries are not always repeated. Where two headings read alike, the source gives them in different places.

Legend:
[1] = Plasma protein binding, human plasma; format: in vitro ADME; conditions: equilibrium dialysis, read-out: Human plasma protein binding fu(%)
Method: (§1) A HepG2 cytotoxicity assay was used to determine a cellular selectivity index. HepG2 cells were seeded into 96-well plates in EMEM medium. Compounds were assessed for their effect upon cellular viability (Supplementary Methods 5.1). Inhibition of CYP450 was determined using kits from BD Biosciences (Supplementary Methods 5.2). Metabolic stability was determined using mouse […] tested at a single concentration of 5 µM. Plasma protein binding was determined using mouse and human plasma at a single concentration of 10 µM (Supplementary Methods 5.4). All PK studies in mice were carried out by Pharmidex (Supplementary Methods 6.1).
Compounds were tested for protein binding using mouse and human plasma at a single concentration of 10 µM and measured by equilibrium dialysis between plasma and buffer. The amount of parent was determined on both sides of the membrane after incubating for 4 hours at 37 °C. The samples were crashed with acetonitrile and put through protein precipitation plates. The eluent was analysed by LC/MS or LC/MS/MS. Output was percentage bound.

[2] = Metabolic stability, human liver microsomes; format: in vitro ADME; conditions: read-out: HLM Clint
Method: as §1
Compounds were tested for their metabolic stability using mouse and human liver microsomes (MLM and HLM). The compounds were tested at a single concentration of 5 µM. The samples were crashed with acetonitrile and put through protein precipitation plates. The eluent was analysed by LC/MS or LC/MS/MS.

[3] = Pharmacokinetic studies in mice (IV and PO); format: in vivo, female CD-1 mice; conditions: for AUC(0-inf): read-out: AUC (infinity)
Method: PK parameters for the lead compounds were determined using three mice per data point (Supplementary Methods 6.1).
Blood samples were collected from terminal cardiac puncture at 0.08 (IV only), 0.25, 0.5, 1 (PO only), 2, 4, 8 and 24 hour time points. The whole blood was centrifuged to obtain plasma. Brains were also collected following cardiac perfusion from both sets of animals at 2 hours. Analysis of the biological samples was carried out by the company Selcia. Plasma proteins were precipitated by addition of PBS (1 volume) followed by 3 volumes of acetonitrile containing internal standard (verapamil). Following filtration through a protein precipitation plate the eluent was dried under nitrogen and re-suspended in mobile phase prior to analysis. Individual brains were homogenised in PBS and diluted to 10% w/v and divided into aliquots consisting of brain homogenate (1 volume, 0.3 ml) and 3 volumes (0.9 ml) of acetonitrile containing internal standard. Samples were centrifuged and supernatants removed and taken through a protein precipitation plate alongside an appropriate standard. Eluents were dried under nitrogen and re-suspended in mobile phase prior to analysis. Eluents were analysed by LC-MS/MS using a Phenomenex Gemini NX column (C18,30 x 2.1 mm, 3 micron). Analysis of the data was carried out using PK solutions software.

T. b. brucei GVR35-VSL2 = experiment: Mouse model of stage 1 and stage 2 HAT, bioluminescence imaging; format: in vivo, T. b. brucei in female CD-1 mice; conditions: treatment during stage 1 (day 7)
Source text: An alternative mouse model for stage 1 (acute) and stage 2 (CNS-involved) HAT has been developed using a transgenic cell line derived from the pleiomorphic T. b. brucei GVR35 that expresses red-shifted firefly luciferase[17],[18]. […] T. b. brucei GVR35-infected mice present stage 1 disease by day 7 post infection with progression to stage 2 by day 21. By injecting the mouse with luciferin, the level of parasitaemia can be estimated in real time by monitoring the luminescence. Unlike monomorphic Lister 427 T. b. brucei, the pleiomorphic GVR35 T. b. brucei is controlled by a quorum-sensing mechanism resulting in the significant increase in survival time in mice and lower blood parasitaemia that occurs in waves. This extended survival time is also accompanied by parasite dissemination to multiple tissues and organs, including the skin, adipose tissue, lung and brain, with parasite loads increasing over time[17],[19].
For the mouse model of stage 1 and stage 2 HAT T. b. brucei GVR35-VSL2 parasites (3 × 10^4) were injected into a single donor female CD-1 mouse intraperitoneally. Once infection was established, starting on day 7 for stage 1 studies and day 21 for stage 2 studies, mice were either left untreated (n = 3) or dosed by oral gavage with CTCB compound in Cremophor EL: EtOH: D-PBS (30:10:60 v/v; n = 6). Progression of T. b. brucei GVR35-VSL2 infection was monitored primarily by in vivo bioluminescence imaging of infected mice using an IVIS Spectrum (PerkinElmer). For stage 1 studies, imaging of infected mice was performed before treatment on day 7 post infection and on days following the treatment (days 8, 9 and 14). Imaging on groups of three mice was performed 12 min after intraperitoneal injection of 150 mg kg^−1 D-luciferin (Promega) in PBS. For stage 2 studies, mice were imaged prior to treatment on day 21, and subsequently on days 22 and 23. On day 23, 24 h after the final dose, mice were sacrificed by cervical dislocation and perfused with PBS containing 15 g L^−1 glucose to allow ex vivo imaging of whole brains (Supplementary Figs. 12 and 13).
Female CD-1 (Charles River UK; 6-8 weeks old) mice were infected with 3 × 10^4 T. b. brucei GVR35-VSL2 bloodstream form parasites intraperitoneally. T. b. brucei GVR35-VSL2 expresses red-shifted luciferase and provides a better signal for imaging (13). Once infection was established, starting on day 7 for Stage 1 studies and day 21 for Stage 2 studies, mice were either left untreated (n=3) or dosed by oral gavage with CTCB compound in Cremophor EL: EtOH : D-PBS (30:10:60 v/v) (n = 6). Additional groups of mice (n=3) that received either a single intraperitoneal dose of diminazene aceturate (Sigma-Aldrich) at 40 mg/kg in sterile water or 0.1 ml melarsoprol gel (14) containing 3.6 mg melarsoprol, applied topically for 3 consecutive days, served as controls for Stage 1 and Stage 2 treatment studies, respectively.
Progression of T. b. brucei GVR35-VSL2 infection was monitored primarily by in vivo bioluminescence imaging of infected mice using an IVIS Spectrum (PerkinElmer) as described previously (5). For stage 1 studies, imaging of infected mice was performed before treatment on day 7 post-infection and in days following the treatment (days 8, 9 and 14). Imaging on groups of three mice was performed 12 minutes after intraperitoneal injection of 150 mg/kg D-luciferin (Promega) in PBS. For stage 2 studies, mice were imaged prior to treatment on day 21 and subsequently on days 22 and 23. On day 23, 24 hours after the final dose, mice were sacrificed by cervical dislocation and perfused with phosphate-buffered saline containing 15 g.L^−1 glucose to allow ex vivo imaging of whole brains. To this end, 100 μl D-luciferin was administered onto the brain surface and imaging performed immediately thereafter.

[4] = female, CD-1, plasma, mouse, PO 5 mg kg^−1

## CN(C)CCn1ccc2c(ccn2Cc2ccc(Cl)c(Cl)c2)c1=O [CTCB-405, 1-[(3,4-Dichlorophenyl)methyl]-5-[2-(dimethylamino)ethyl] pyrrolo[3,2-c]pyridin-4-one]
[1]
  fraction unbound at 4 h, 10 µM: 0.063
[2]
  microsomal CLint at 5 µM: < 8.6 µL/min/mg
[3]; 1 mg/kg IV bolus, mouse (female, CD-1), 0.08 h
  Plasma concentration, individual animal: 0.415 µM and 0.386 µM and 140.6 ng/ml and 135.9 ng/ml
[3]; 1 mg/kg IV bolus, mouse (female, CD-1), 0.25 h
  Plasma concentration, individual animal: 0.37 µM and 0.489 µM and 178.1 ng/ml and 108.2 ng/ml
[3]; 1 mg/kg IV bolus, mouse (female, CD-1), 0.5 h
  Plasma concentration, individual animal: 0.118 µM and 0.159 µM and 57.9 ng/ml and 49.5 ng/ml
[3]; 1 mg/kg IV bolus, mouse (female, CD-1), 2 h
  Plasma concentration, individual animal: 0.049 µM and 0.069 µM and 0.109 µM and 25.1 ng/ml and 39.7 ng/ml and 17.8 ng/ml
[3]; 1 mg/kg IV bolus, mouse (female, CD-1), 4 h
  Plasma concentration, individual animal: 0.042 µM and 0.015 µM and 0.019 µM and 5.5 ng/ml and 6.9 ng/ml and 15.3 ng/ml
[3]; 1 mg/kg IV bolus, mouse (female, CD-1), 8 h
  Plasma concentration, individual animal: 0.011 µM and 4.0 ng/ml
[3]; 5 mg/kg oral dose (PO), mouse (female, CD-1), 0.25 h
  Plasma concentration, individual animal: 279.4 ng/ml and 164.7 ng/ml and 0.767 µM and 0.452 µM
[3]; 5 mg/kg oral dose (PO), mouse (female, CD-1), 0.5 h
  Plasma concentration, individual animal: 77.6 ng/ml and 126.4 ng/ml and 0.213 µM and 0.347 µM
[3]; 5 mg/kg oral dose (PO), mouse (female, CD-1), 1 h
  Plasma concentration, individual animal: 129.3 ng/ml and 229.9 ng/ml and 100.9 ng/ml and 0.355 µM and 0.631 µM and 0.277 µM
[3]; 5 mg/kg oral dose (PO), mouse (female, CD-1), 2 h
  Plasma concentration, individual animal: 177.4 ng/ml and 144.3 ng/ml and 303.4 ng/ml and 0.487 µM and 0.396 µM and 0.833 µM
[3]; 5 mg/kg oral dose (PO), mouse (female, CD-1), 4 h
  Plasma concentration, individual animal: 88.9 ng/ml and 83.8 ng/ml and 0.244 µM and 0.23 µM
[3]; 5 mg/kg oral dose (PO), mouse (female, CD-1), 8 h
  Plasma concentration, individual animal: 9.1 ng/ml and 0.025 µM
[3]; female, CD-1, mouse, plasma, intravenous, 1 mg/kg, 1 mg/kg IV bolus, mouse (female, CD-1), 0.08 h, read-out: Plasma concentration, Mean
  concentration at 0.08 h: 143 ng/mL and 391 nM
[3]; female, CD-1, mouse, plasma, intravenous, 1 mg/kg, 1 mg/kg IV bolus, mouse (female, CD-1), 0.08 h, read-out: Plasma concentration, individual animal
  concentration at 0.08 h: 373 nM and 151 ng/mL
[3]; female, CD-1, mouse, plasma, intravenous, 1 mg/kg, 1 mg/kg IV bolus, mouse (female, CD-1), 0.25 h, read-out: Plasma concentration, Mean
  concentration at 0.25 h: 140 ng/mL and 385 nM
[3]; female, CD-1, mouse, plasma, intravenous, 1 mg/kg, 1 mg/kg IV bolus, mouse (female, CD-1), 0.25 h, read-out: Plasma concentration, individual animal
  concentration at 0.25 h: 297 nM and 135 ng/mL
[3]; female, CD-1, mouse, plasma, intravenous, 1 mg/kg, 1 mg/kg IV bolus, mouse (female, CD-1), 0.5 h, read-out: Plasma concentration, Mean
  concentration at 0.5 h: 50.1 ng/mL and 138 nM
[3]; female, CD-1, mouse, plasma, intravenous, 1 mg/kg, 1 mg/kg IV bolus, mouse (female, CD-1), 0.5 h, read-out: Plasma concentration, individual animal
  concentration at 0.5 h: 136 nM and 43 ng/mL
[3]; female, CD-1, mouse, plasma, intravenous, 1 mg/kg, 1 mg/kg IV bolus, mouse (female, CD-1), 2 h
  concentration at 2 h: 27.6 ng/mL and 75.7 nM
[3]; female, CD-1, mouse, plasma, intravenous, 1 mg/kg, 1 mg/kg IV bolus, mouse (female, CD-1), 4 h, read-out: Plasma concentration, Mean
  concentration at 4 h: 9.23 ng/mL and 25.3 nM
[3]; female, CD-1, mouse, plasma, intravenous, 1 mg/kg, 1 mg/kg IV bolus, mouse (female, CD-1), 8 h, read-out: Plasma concentration, Mean
  concentration at 8 h: 3.28 ng/mL and 9 nM
[3]; female, CD-1, mouse, plasma, intravenous, 1 mg/kg, 1 mg/kg IV bolus, mouse (female, CD-1), 8 h, read-out: Plasma concentration, individual animal
  concentration at 8 h: 7 nM and 2.5 ng/mL
[3]; female, CD-1, mouse, plasma, oral, 5 mg/kg, 5 mg/kg oral dose (PO), mouse (female, CD-1), 0.25 h, read-out: Plasma concentration, Mean
  concentration at 0.25 h: 200 ng/mL and 548 nM
[3]; female, CD-1, mouse, plasma, oral, 5 mg/kg, 5 mg/kg oral dose (PO), mouse (female, CD-1), 0.25 h, read-out: Plasma concentration, individual animal
  concentration at 0.25 h: 155 ng/mL and 426 nM
[3]; female, CD-1, mouse, plasma, oral, 5 mg/kg, 5 mg/kg oral dose (PO), mouse (female, CD-1), 0.5 h, read-out: Plasma concentration, Mean
  concentration at 0.5 h: 103 ng/mL and 283 nM
[3]; female, CD-1, mouse, plasma, oral, 5 mg/kg, 5 mg/kg oral dose (PO), mouse (female, CD-1), 0.5 h, read-out: Plasma concentration, individual animal
  concentration at 0.5 h: 105 ng/mL and 288 nM
[3]; female, CD-1, mouse, plasma, oral, 5 mg/kg, 5 mg/kg oral dose (PO), mouse (female, CD-1), 1 h
  concentration at 1 h: 153 ng/mL and 421 nM
[3]; female, CD-1, mouse, plasma, oral, 5 mg/kg, 5 mg/kg oral dose (PO), mouse (female, CD-1), 2 h
  concentration at 2 h: 208 ng/mL and 572 nM
[3]; female, CD-1, mouse, plasma, oral, 5 mg/kg, 5 mg/kg oral dose (PO), mouse (female, CD-1), 4 h, read-out: Plasma concentration, Mean
  concentration at 4 h: 89 ng/mL and 244 nM
[3]; female, CD-1, mouse, plasma, oral, 5 mg/kg, 5 mg/kg oral dose (PO), mouse (female, CD-1), 4 h, read-out: Plasma concentration, individual animal
  concentration at 4 h: 94.3 ng/mL and 259 nM
[3]; female, CD-1, mouse, plasma, oral, 5 mg/kg, 5 mg/kg oral dose (PO), mouse (female, CD-1), 8 h, read-out: Plasma concentration, Mean
  concentration at 8 h: 8.2 ng/mL and 22.5 nM
[3]; female, CD-1, mouse, plasma, oral, 5 mg/kg, 5 mg/kg oral dose (PO), mouse (female, CD-1), 8 h, read-out: Plasma concentration, individual animal
  concentration at 8 h: 7.3 ng/mL and 20 nM
[3]; female, CD-1, plasma, mouse, IV 1 mg kg^−1
  AUC(0-inf): 260 ng·h/mL
[3]; female, CD-1, plasma, mouse, IV 1 mg kg^−1, read-out: CL/kg (converted)
  clearance: 63.3 mL/min/kg
[3]; female, CD-1, plasma, mouse, IV 1 mg kg^−1, read-out: Elimination t1/2 (converted)
  half-life: 2.7 h
[3]; female, CD-1, plasma, mouse, IV 1 mg kg^−1, read-out: Vd (area)
  Vd: 12.3 L/kg
[3]; [4]
  Cmax: 206 ng/mL
  Tmax: 0.3 h
  AUC(0-inf): 704 ng·h/mL
[3]; female, CD-1, plasma, mouse, PO 5 mg kg^−1 vs IV 1 mg kg^−1, read-out: Bioavailability (F%)
  bioavailability: 54%
T. b. brucei GVR35-VSL2
  detection of parasites in blood delayed to: 14 day post infection
  effect on parasitaemia, stage 1 treatment: reduced parasitaemia in the body and blood of mice
